From ChEMBL document CHEMBL1806393, “Cytotoxic oxasqualenoids from the red alga Laurencia viridis” (Eur J Med Chem, 2011)
Activity calls are given as the source filed them. The calls are words filed in the database; no cut-off is given here.

Key:
HeLa = experiment: Cytotoxicity against human HeLa cells assessed as inhibition of cell proliferation after 72 hrs by XTT assay; format: functional, cell-based
[1] = Cytotoxicity against human CADO-ES1 cells assessed as inhibition of cell proliferation after 72 hrs by XTT assay; format: functional, cell-based; conditions: CADO-ES1, 72 h
[2] = Cytotoxicity against human MM144 cells assessed as inhibition of cell proliferation after 72 hrs by XTT assay; format: functional, cell-based
Jurkat [3] = experiment: Cytotoxicity against human Jurkat cells assessed as inhibition of cell proliferation after 72 hrs by XTT assay; format: functional, cell-based
[4] = Solubility of the compound in water; format: physicochemical; conditions: buffer
[5] = Inhibition of […] using p-nitrophenyl phosphate as substrate at <100 uM by UV/visible absorption spectroscopic analysis
Jurkat [6] = experiment: Cell cycle arrest in human Jurkat cells assessed as increase in apoptotic cells at sub-G1 phase at 20 uM after 72 hrs using propidium iodide staining by flow cytometry; format: functional, cell-based
Jurkat [7] = experiment: Induction of apoptosis in human Jurkat cells assessed as DNA breakdown in sub-G1 phase at 20 uM after 24 to 72 hrs using propidium iodide staining by flow cytometry; format: functional, cell-based

SMILES	IC50 (HeLa) [µM]	IC50 [1] [µM]	IC50 [2] [µM]	IC50 (Jurkat [3]) [µM]	solubility [4]	inhibition [5]	Activity (Jurkat [6])	Activity (Jurkat [7])
CC(C)(O)[C@H]1CC[C@](C)([C@@H](O)CC[C@@](O)(CO)C(=O)[C@H](O)C[C@H]2O[C@@H]([C@]3(C)CC[C@@H](Br)C(C)(C)O3)CC[C@]2(C)O)O1	26	3.1	15.5	7.2	Insoluble	inactive	–	–
CC(C)(O)[C@H]1CC[C@](C)([C@@H](O)CC[C@@](O)(CO)C2=CC[C@H]3O[C@@H]([C@]4(C)CC[C@@H](Br)C(C)(C)O4)CC[C@]3(C)O2)O1	–	–	–	–	–	inactive	–	–
CC(C)(O)[C@H]1CC[C@](C)([C@@H](O)CC[C@@](O)(CO)C(=O)CC[C@H]2O[C@@H]([C@]3(C)CC[C@@H](Br)C(C)(C)O3)CC[C@]2(C)O)O1 [PRETHYRSENOL A]	29	14.5	10.2	8.15	Insoluble	inactive	–	–
CC(C)(O)[C@H]1CC[C@](C)([C@H](CCC(O)(COS(=O)(=O)O)[C@H]2CC[C@H]3O[C@@H]([C@]4(C)CC[C@@H](Br)C(C)(C)O4)CC[C@]3(C)O2)OS(=O)(=O)O)O1 (stereo partly drawn)	35.5	17	31.5	8.6	Insoluble	inactive	–	–
CC(C)(O)[C@H]1CC[C@](C)([C@H](CCC(O)(CO)[C@H]2CC[C@H]3O[C@@H]([C@]4(C)CC[C@@H](Br)C(C)(C)O4)CC[C@]3(C)O2)OS(=O)(=O)O)O1 (stereo partly drawn)	27.5	11	13.5	6.9	Insoluble	inactive	–	–
CC(C)(O)[C@H]1CC[C@](C)([C@@H](O)CC[C@@H](CO)C2=CC[C@H]3O[C@@H]([C@]4(C)CC[C@@H](Br)C(C)(C)O4)CC[C@]3(C)O2)O1	23	16.5	7.3	7.55	Insoluble	inactive	–	–
C=C(CC[C@H](O)[C@@]1(C)CC[C@H](C(C)(C)O)O1)[C@H]1CC[C@H]2O[C@@H]([C@]3(C)CC[C@@H](Br)C(C)(C)O3)CC[C@]2(C)O1 [DEHYDROTHYRSIFEROL]	34.5	12	21.5	13.5	Insoluble	inactive	Active	Active
C=C(CC[C@H](OS(=O)(=O)O)[C@@]1(C)CC[C@H](C(C)(C)O)O1)[C@H]1CC[C@H]2O[C@@H]([C@]3(C)CC[C@@H](Br)C(C)(C)O3)CC[C@]2(C)O1	33	27	18	12	Insoluble	inactive	Active	Active
CC(C)(O)[C@H]1CC[C@](C)([C@@H](O)CCC(O)(CO)[C@H]2CC[C@H]3O[C@@H]([C@]4(C)CC[C@@H](Br)C(C)(C)O4)CC[C@]3(C)O2)O1 (stereo partly drawn)	24	18	21	4.6	Insoluble	inactive	–	–
